Literature values as cited in patent US20090148532A1, “Preparation of controlled release skeletal muscle relaxant dosage forms” (priority 2007, published 2009).

Conditions: after oral administration

## CN(C)CCC=C1c2ccccc2C=Cc2ccccc21 [Cyclobenzaprine]
  Elimination half-life: one to three
